Assay results from patent US20260193264A1, “BENZOYPARAZINE PYRAZINES AND THEIR USES” (FOGHORN THERAPEUTICS INC., priority 2022, published 2026).

Legend:
[1] = molecular target: T1, HiBiT-BRM fusion protein in stable HeLa cell line (Homo sapiens, UniProt P51531); test: HiBiT-BRM cell-based degradation assay (Nano-Glo HiBiT Lytic Detection, 24 h); set-up: DC50: scale not given here; conditions: HeLa HiBiT-BRM cells; for DC50: read-out: BRM HiBit Degradation IC50; for BRM HiBit Degradation Maximum (%): top dose 30 μM
T1 construct: expressed in transfected cells
T1 sequence (P51531 whole entry, the tested form may be a part): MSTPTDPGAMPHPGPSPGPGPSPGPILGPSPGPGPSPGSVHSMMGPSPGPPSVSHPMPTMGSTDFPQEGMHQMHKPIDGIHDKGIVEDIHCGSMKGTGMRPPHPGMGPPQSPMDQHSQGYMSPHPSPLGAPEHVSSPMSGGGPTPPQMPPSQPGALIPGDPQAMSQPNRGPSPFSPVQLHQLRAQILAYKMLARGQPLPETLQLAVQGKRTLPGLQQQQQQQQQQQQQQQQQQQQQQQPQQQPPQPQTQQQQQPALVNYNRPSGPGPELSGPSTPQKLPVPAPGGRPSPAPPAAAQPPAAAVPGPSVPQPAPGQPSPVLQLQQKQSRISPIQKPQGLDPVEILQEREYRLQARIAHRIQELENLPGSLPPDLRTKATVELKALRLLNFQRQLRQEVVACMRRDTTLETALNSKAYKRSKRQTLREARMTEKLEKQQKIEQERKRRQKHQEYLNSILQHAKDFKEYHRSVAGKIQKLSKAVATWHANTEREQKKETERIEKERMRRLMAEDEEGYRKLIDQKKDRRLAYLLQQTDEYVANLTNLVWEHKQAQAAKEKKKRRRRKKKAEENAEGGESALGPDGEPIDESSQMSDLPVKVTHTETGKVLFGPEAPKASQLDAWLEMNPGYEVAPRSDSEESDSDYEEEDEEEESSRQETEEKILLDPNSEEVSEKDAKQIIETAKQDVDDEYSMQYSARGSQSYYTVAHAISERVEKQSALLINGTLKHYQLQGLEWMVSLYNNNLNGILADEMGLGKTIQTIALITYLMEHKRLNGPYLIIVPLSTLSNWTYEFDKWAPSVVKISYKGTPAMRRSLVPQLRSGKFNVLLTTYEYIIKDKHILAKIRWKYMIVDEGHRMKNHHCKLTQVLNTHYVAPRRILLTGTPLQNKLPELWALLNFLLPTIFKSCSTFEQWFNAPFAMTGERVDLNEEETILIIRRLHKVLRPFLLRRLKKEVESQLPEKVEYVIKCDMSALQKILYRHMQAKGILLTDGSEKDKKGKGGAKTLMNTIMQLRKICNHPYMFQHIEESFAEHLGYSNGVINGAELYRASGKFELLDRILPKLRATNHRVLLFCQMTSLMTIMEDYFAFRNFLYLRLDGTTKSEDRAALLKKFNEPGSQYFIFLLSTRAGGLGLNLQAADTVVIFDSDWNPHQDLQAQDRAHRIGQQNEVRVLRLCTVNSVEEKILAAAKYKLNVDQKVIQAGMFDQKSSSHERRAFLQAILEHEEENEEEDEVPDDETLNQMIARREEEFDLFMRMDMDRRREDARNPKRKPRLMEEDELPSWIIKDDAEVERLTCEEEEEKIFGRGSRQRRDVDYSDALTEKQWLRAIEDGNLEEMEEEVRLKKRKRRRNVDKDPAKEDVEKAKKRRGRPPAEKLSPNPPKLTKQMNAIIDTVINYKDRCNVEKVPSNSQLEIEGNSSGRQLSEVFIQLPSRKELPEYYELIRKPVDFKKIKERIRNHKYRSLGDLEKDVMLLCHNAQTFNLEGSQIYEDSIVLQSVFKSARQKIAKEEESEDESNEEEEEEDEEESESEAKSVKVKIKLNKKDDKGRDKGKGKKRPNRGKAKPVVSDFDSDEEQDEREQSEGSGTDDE
In short: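 Stable HiBiT-BRM HeLa cells treated 24 h with 10-point 3-fold dilutions, top final dose 30 μM, in duplicate. Luminescence read after lytic LgBiT reagent. Percent degradation was normalised to DMSO (high control) and 2 μM reference BRM/BRG1 degrader (low control).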

[2] = molecular target: T2, HiBit-BRG1 fusion protein in stable HeLa cell line expressing HiBit-BRG1 and LgBit (Homo sapiens, UniProt P51532); test: HiBiT-BRG1 cell-based degradation assay (Nano-Glo HiBiT, 24 h); conditions: HeLa HiBit-BRG1/LgBit cells; for Dmax: top dose 30 μM, read-out: BRG1 HiBit Degradation Maximum (%); for DC50: read-out: BRMG1 HiBit Degradation IC50
T2 construct: expressed in transfected cells
T2 sequence (P51532 whole entry, the tested form may be a part): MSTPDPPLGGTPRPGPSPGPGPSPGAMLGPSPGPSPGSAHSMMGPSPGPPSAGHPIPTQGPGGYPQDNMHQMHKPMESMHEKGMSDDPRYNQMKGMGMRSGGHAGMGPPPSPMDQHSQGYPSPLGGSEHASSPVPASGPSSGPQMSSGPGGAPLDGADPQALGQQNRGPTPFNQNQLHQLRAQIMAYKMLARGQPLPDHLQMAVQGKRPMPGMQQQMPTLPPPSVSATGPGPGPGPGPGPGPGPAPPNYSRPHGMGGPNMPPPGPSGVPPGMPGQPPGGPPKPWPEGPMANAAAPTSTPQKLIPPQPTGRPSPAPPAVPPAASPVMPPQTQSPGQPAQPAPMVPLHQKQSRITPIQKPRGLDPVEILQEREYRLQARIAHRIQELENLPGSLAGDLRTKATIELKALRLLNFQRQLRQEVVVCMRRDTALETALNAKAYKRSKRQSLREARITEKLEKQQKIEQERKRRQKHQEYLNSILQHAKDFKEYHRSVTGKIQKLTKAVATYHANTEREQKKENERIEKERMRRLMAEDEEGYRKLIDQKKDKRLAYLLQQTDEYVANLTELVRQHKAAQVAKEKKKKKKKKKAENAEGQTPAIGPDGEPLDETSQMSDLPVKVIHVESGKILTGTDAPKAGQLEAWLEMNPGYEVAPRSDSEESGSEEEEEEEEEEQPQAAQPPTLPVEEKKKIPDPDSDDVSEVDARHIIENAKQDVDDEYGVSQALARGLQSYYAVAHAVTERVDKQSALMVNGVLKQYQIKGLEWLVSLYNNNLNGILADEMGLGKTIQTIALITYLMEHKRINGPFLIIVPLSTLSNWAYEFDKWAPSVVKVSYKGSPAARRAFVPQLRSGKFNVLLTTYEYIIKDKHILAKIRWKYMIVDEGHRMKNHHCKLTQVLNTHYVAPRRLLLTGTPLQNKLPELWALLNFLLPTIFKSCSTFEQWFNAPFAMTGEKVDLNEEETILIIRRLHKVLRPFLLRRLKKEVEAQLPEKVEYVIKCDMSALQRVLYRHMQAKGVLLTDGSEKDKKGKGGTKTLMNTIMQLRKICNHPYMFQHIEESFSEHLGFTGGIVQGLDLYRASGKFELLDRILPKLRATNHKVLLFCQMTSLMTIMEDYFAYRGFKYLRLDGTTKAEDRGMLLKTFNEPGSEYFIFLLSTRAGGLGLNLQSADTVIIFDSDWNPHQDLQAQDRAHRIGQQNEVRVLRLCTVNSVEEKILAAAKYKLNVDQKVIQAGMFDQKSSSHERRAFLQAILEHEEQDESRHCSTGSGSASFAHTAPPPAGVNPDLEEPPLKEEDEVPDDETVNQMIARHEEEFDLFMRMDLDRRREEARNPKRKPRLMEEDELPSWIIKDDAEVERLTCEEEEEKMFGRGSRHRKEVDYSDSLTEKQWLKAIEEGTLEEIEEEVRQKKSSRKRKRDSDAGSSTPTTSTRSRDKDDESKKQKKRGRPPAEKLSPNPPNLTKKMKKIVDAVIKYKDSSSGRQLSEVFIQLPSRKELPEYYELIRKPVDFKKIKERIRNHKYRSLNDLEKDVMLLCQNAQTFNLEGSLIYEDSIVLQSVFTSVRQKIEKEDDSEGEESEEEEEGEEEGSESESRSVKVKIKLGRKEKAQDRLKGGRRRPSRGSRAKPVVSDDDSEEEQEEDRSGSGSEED
In short: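 Stable HeLa line co-expressing HiBiT-BRG1 and LgBiT, compound-treated 24 h; luminescence read after Nano-Glo HiBiT lytic reagent. % degradation normalised between DMSO (high control) and 2 μM reference BRM/BRG1 degrader (low control).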

DC50 [1] [µM]	Dmax [2] [%]	DC50 [2] [µM]	Compound	BRM HiBit Degradation Maximum (%) [1]
> 0.01	< 50	–	Cc1ncsc1-c1ccc([C@H](C)NC(=O)[C@@H]2C[C@@H](O)CN2C(=O)[C@@H](c2cc(N3CCC[C@@H](c4ccc5nnc(-c6ccccc6O)cc5c4)C3)no2)C(C)C)cc1 [Compound 101, (2S,4R)-4-hydroxy-1-((R)-2-(3-((S)-3-(3-(2-hydroxyphenyl)cinnolin-6-yl)piperidin-1-yl)isoxazol-5-yl)-3-methylbutanoyl)-N-((S)-1-(4-(4-methylthiazol-5-yl)phenyl)ethyl)pyrrolidine-2-carboxamide]	A (“A” indicates maximum degradation ≥75%)
< 0.01	< 50	–	Cc1ncsc1-c1ccc([C@H](C)NC(=O)[C@@H]2C[C@@H](O)CN2C(=O)[C@@H](c2cc(N3CC4(CCN4c4ccc5nnc(-c6ccccc6O)cc5c4)C3)no2)C(C)C)cc1 [Compound 102, (2S,4R)-4-hydroxy-1-((R)-2-(3-(1-(3-(2-hydroxyphenyl)cinnolin-6-yl)-1,6-diazaspiro[3.3]heptan-6-yl)isoxazol-5-yl)-3-methylbutanoyl)-N-((S)-1-(4-(4-methylthiazol-5-yl)phenyl)ethyl)pyrrolidine-2-carboxamide]	A (“A” indicates maximum degradation ≥75%)
< 0.01	< 50	–	Cc1ncsc1-c1ccc([C@H](C)NC(=O)[C@@H]2C[C@@H](O)CN2C(=O)[C@@H](c2cc(N3CCC4(CC3)CCN(c3ccc5cc(-c6ccccc6O)nnc5c3)C(=O)C4)no2)C(C)C)cc1 [Compound 103, (2S,4R)-4-hydroxy-1-((R)-2-(3-(9-(3-(2-hydroxyphenyl)cinnolin-7-yl)-8-oxo-3,9-diazaspiro[5.5]undecan-3-yl)isoxazol-5-yl)-3-methylbutanoyl)-N-((S)-1-(4-(4-methylthiazol-5-yl)phenyl)ethyl)pyrrolidine-2-carboxamide]	A (“A” indicates maximum degradation ≥75%)
< 0.01	< 50	–	Cc1ncsc1-c1ccc([C@H](C)NC(=O)[C@@H]2C[C@@H](O)CN2C(=O)[C@@H](c2cc(N3CCC4(CC3)CCN(c3ccc5cc(-c6ccccc6O)nnc5c3)C4=O)no2)C(C)C)cc1 [Compound 104, (2S,4R)-4-hydroxy-1-((R)-2-(3-(2-(3-(2-hydroxyphenyl)cinnolin-7-yl)-1-oxo-2,8-diazaspiro[4.5]decan-8-yl)isoxazol-5-yl)-3-methylbutanoyl)-N-((S)-1-(4-(4-methylthiazol-5-yl)phenyl)ethyl)pyrrolidine-2-carboxamide]	A (“A” indicates maximum degradation ≥75%)
< 0.01	> 75	< 0.01	Cc1ncsc1-c1ccc([C@H](C)NC(=O)[C@@H]2C[C@@H](O)CN2C(=O)[C@@H](c2cc(N3CC4(CCN(c5ccc6cc(-c7ccccc7O)nnc6c5)CC4(F)F)C3)no2)C(C)C)cc1 [Compound 105, (2S,4R)-1-((R)-2-(3-(5,5-difluoro-7-(3-(2-hydroxyphenyl)cinnolin-7-yl)-2,7-diazaspiro[3.5]nonan-2-yl)isoxazol-5-yl)-3-methylbutanoyl)-4-hydroxy-N-((S)-1-(4-(4-methylthiazol-5-yl)phenyl)ethyl)pyrrolidine-2-carboxamide]	A (“A” indicates maximum degradation ≥75%)
< 0.01	> 75	< 0.01	Cc1ncsc1-c1ccc([C@H](C)NC(=O)[C@@H]2C[C@@H](O)CN2C(=O)[C@@H](c2cc(N3CCC4(CCN(c5ccc6cc(-c7ccccc7O)nnc6c5)CC4)CC3)no2)C(C)C)cc1 [Compound 106, (2S,4R)-4-hydroxy-1-((R)-2-(3-(9-(3-(2-hydroxyphenyl)cinnolin-7-yl)-3,9-diazaspiro [5.5]undecan-3-yl)isoxazol-5-yl)-3-methylbutanoyl)-N-((S)-1-(4-(4-methylthiazol-5-yl)phenyl)ethyl)pyrrolidine-2-carboxamide]	A (“A” indicates maximum degradation ≥75%)
< 0.01	> 75	< 0.01	Cc1ncsc1-c1ccc([C@H](C)NC(=O)[C@@H]2C[C@@H](O)CN2C(=O)[C@@H](c2cc(N3CCN([C@@H]4CCN(c5ccc6cc(-c7ccccc7O)nnc6c5)CC4(F)F)CC3)no2)C(C)C)cc1 [Compound 107, (2S,4R)-1-((R)-2-(3-(4-((R)-3,3-difluoro-1-(3-(2-hydroxyphenyl)cinnolin-7-yl)piperidin-4-yl)piperazin-1-yl)isoxazol-5-yl)-3-methylbutanoyl)-4-hydroxy-N-((S)-1-(4-(4-methylthiazol-5-yl)phenyl)ethyl)pyrrolidine-2-carboxamide]	A (“A” indicates maximum degradation ≥75%)
< 0.01	> 75	> 0.01	Cc1ncsc1-c1ccc([C@H](C)NC(=O)[C@@H]2C[C@@H](O)CN2C(=O)C(c2cc(N3CCC4(CN(c5ccc6cc(-c7ccccc7O)nnc6c5)C4)C(F)(F)C3)no2)C(C)C)cc1 (stereo partly drawn) [Compound 108, (2S,4R)-1-(2-(3-(5,5-difluoro-2-(3-(2-hydroxyphenyl)cinnolin-7-yl)-2,7-diazaspiro [3.5]nonan-7-yl)isoxazol-5-yl)-3-methylbutanoyl)-4-hydroxy-N-((S)-1-(4-(4-methylthiazol-5-yl)phenyl)ethyl)pyrrolidine-2-carboxamide]	A (“A” indicates maximum degradation ≥75%)
< 0.01	< 50	–	CC(C)[C@@H](C(=O)N1C[C@H](O)C[C@H]1C(=O)N[C@@H](C)c1ccc(Br)cc1)c1cc(N2CC3(CN(c4ccc5cc(-c6ccccc6O)nnc5c4)C3)C2)no1 [Compound 109, (2S,4R)-N-((S)-1-(4-bromophenyl)ethyl)-4-hydroxy-1-((R)-2-(3-(6-(3-(2-hydroxyphenyl)cinnolin-7-yl)-2,6-diazaspiro[3.3]heptan-2-yl)isoxazol-5-yl)-3-methylbutanoyl)pyrrolidine-2-carboxamide]	A (“A” indicates maximum degradation ≥75%)
< 0.01	< 50	–	CC(C)[C@@H](C(=O)N1C[C@H](O)C[C@H]1C(=O)N[C@@H](C)c1ccccc1F)c1cc(N2CC3(CN(c4ccc5cc(-c6ccccc6O)nnc5c4)C3)C2)no1 [Compound 110, (2S,4R)-N-((S)-1-(2-fluorophenyl)ethyl)-4-hydroxy-1-((R)-2-(3-(6-(3-(2-hydroxyphenyl)cinnolin-7-yl)-2,6-diazaspiro[3.3]heptan-2-yl)isoxazol-5-yl)-3-methylbutanoyl)pyrrolidine-2-carboxamide]	A (“A” indicates maximum degradation ≥75%)
< 0.01	< 50	–	CC(C)[C@@H](C(=O)N1C[C@H](O)C[C@H]1C(=O)NCc1ccccc1)c1cc(N2CC3(CN(c4ccc5cc(-c6ccccc6O)nnc5c4)C3)C2)no1 [Compound 111, (2S,4R)-N-benzyl-4-hydroxy-1-((R)-2-(3-(6-(3-(2-hydroxyphenyl)cinnolin-7-yl)-2,6-diazaspiro[3.3]heptan-2-yl)isoxazol-5-yl)-3-methylbutanoyl)pyrrolidine-2-carboxamide]	A (“A” indicates maximum degradation ≥75%)
< 0.01	> 50	> 0.01	CC(C)C(C(=O)N1C[C@H](O)C[C@H]1C(=O)N[C@@H](C)c1ccc(C#N)cc1)c1cc(N2CC3(CN(c4ccc5cc(-c6ccccc6O)nnc5c4)C3)C2)no1 (stereo partly drawn) [Compound 112, (2S,4R)-N-((S)-1-(4-cyanophenyl)ethyl)-4-hydroxy-1-(2-(3-(6-(3-(2-hydroxyphenyl)cinnolin-7-yl)-2,6-diazaspiro[3.3]heptan-2-yl)isoxazol-5-yl)-3-methylbutanoyl)pyrrolidine-2-carboxamide]	A (“A” indicates maximum degradation ≥75%)
< 0.01	< 50	–	CC(C)C(C(=O)N1C[C@H](O)C[C@H]1C(=O)N[C@@H](C)c1ccc(Cl)cc1)c1cc(N2CC3(CN(c4ccc5cc(-c6ccccc6O)nnc5c4)C3)C2)no1 (stereo partly drawn) [Compound 113, (2S,4R)-N-((S)-1-(4-chlorophenyl)ethyl)-4-hydroxy-1-(2-(3-(6-(3-(2-hydroxyphenyl)cinnolin-7-yl)-2,6-diazaspiro[3.3]heptan-2-yl)isoxazol-5-yl)-3-methylbutanoyl)pyrrolidine-2-carboxamide]	A (“A” indicates maximum degradation ≥75%)
< 0.01	< 50	–	CNC(=O)[C@@H]1C[C@@H](O)CN1C(=O)C(c1cc(N2CC3(CN(c4ccc5cc(-c6ccccc6O)nnc5c4)C3)C2)no1)C(C)C (stereo partly drawn) [Compound 114, (2S,4R)-4-hydroxy-1-(2-(3-(6-(3-(2-hydroxyphenyl)cinnolin-7-yl)-2,6-diazaspiro[3.3]heptan-2-yl)isoxazol-5-yl)-3-methylbutanoyl)-N-methylpyrrolidine-2-carboxamide]	A (“A” indicates maximum degradation ≥75%)
< 0.01	> 75	< 0.01	Cc1ncsc1-c1ccc([C@H](C)NC(=O)[C@@H]2C[C@@H](O)CN2C(=O)[C@@H](c2cc(N3CCN([C@H]4CCN(c5ccc6cc(-c7ccccc7O)nnc6c5)CC4(F)F)CC3)no2)C(C)C)cc1 [Compound 115, (2S,4R)-1-((R)-2-(3-(4-((S)-3,3-difluoro-1-(3-(2-hydroxyphenyl)cinnolin-7-yl)piperidin-4-yl)piperazin-1-yl)isoxazol-5-yl)-3-methylbutanoyl)-4-hydroxy-N-((S)-1-(4-(4-methylthiazol-5-yl)phenyl)ethyl)pyrrolidine-2-carboxamide]	A (“A” indicates maximum degradation ≥75%)
